These results are taken from USRE49850E1, “N-(pyridin-2-yl)-4-(thiazol-5-yl)pyrimidin-2-amine derivatives as therapeutic compounds” (AUCENTRA THERAPEUTICS PTY LTD, priority 2015, dated 2024).

One test has as its target T1, CDK4D1 (Homo sapiens, UniProt P11802).
T1 construct: purchased Eurofins Pharma Discovery or Reaction Biology Corporation (service)
The test can be described thus: Kinase assay CDK4/D1 (radiometric or ADP Glo). Particulars: apparent Ki calculated from Km (ATP) and IC50; read-out: CDK inhibition Ki CDK4D1. It counts as biochemical. The protocol: (§1) Eurofins Pharma Discovery or Reaction Biology Corporation Kinase Profiler services were used to measure inhibition of CDKs and other kinases by radiometric assay. Inhibition of CDK4/D1, CDK6/D3 and CDK9/T1 were also determined in-house using ADP Glo Kinase assays (Promega Corporation, Madison, USA). Briefly, the kinase reaction for CDK4/D1 and CDK6/D3 was performed with kinase reaction buffer ([…] Tris base pH 7.5, 20 mM MgCl2, 0.4 mM DTT), 0.1 mg/ml BSA and RB-CTF substrate (retinoblastoma protein1 C-terminal fraction). For CDK9/CyclinT1, the kinase reaction was performed with standard assay buffer and Kinase Dilution Buffer and RBER-IRStide substrate. Serial dilutions of 1:3 were prepared for test compounds for 10 concentrations (from 10 μM to 0.5 nM). The kinase reactions were started by addition of ATP, incubated for 40 min at 37° C. and then stopped by adding 10 μL of ADP Glo reagent. After incubation at room temperature in the dark for 40 min, 20 μL of kinase detection reagent was added per well and incubated for 40 min. Luminescence was measured using an EnVision Multilabel plate reader (PerkinElmer, Buckinghamshire, UK). Positive and negative controls were perfonned in the presence and absence of CDK kinases, respectively. Half-maximal inhibition (IC50) values were calculated using a 4-parameter logistic non-linear regression model with Graphpad prism (Version 6.0). Apparent inhibition constants (Ki) values were calculated from Km (ATP) and IC50 values for the respective kinases.

A further test deals with T2, CDK6D3 (Homo sapiens, UniProt Q00534).
T2 construct: purchased Eurofins Pharma Discovery or Reaction Biology Corporation (service)
T2 sequence (Q00534 whole entry): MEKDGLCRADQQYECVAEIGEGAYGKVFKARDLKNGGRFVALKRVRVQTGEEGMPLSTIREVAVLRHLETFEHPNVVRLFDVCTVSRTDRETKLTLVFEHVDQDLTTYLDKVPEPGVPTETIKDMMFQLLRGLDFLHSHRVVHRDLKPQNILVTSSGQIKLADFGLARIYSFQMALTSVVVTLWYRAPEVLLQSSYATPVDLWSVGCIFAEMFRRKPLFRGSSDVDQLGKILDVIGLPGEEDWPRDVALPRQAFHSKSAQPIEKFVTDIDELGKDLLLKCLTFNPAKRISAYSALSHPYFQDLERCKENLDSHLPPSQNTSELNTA
T2 sequence (P30281 whole entry partner): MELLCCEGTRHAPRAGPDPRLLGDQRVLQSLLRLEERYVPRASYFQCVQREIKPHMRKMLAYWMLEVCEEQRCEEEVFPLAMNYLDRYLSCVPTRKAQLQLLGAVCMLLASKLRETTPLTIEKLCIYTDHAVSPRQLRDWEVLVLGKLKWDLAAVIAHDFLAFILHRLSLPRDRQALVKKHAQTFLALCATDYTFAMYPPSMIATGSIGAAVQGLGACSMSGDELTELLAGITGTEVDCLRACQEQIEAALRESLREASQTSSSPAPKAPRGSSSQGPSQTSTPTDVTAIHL
The test can be described thus: Kinase assay CDK6/D3 (radiometric or ADP Glo). Particulars: for Ki: apparent Ki calculated from Km (ATP) and IC50, read-out: CDK inhibition Ki CDK6D3. Format: biochemical. Here is the method:
as §1

In a further test the target is CDK1B (Homo sapiens, UniProt P06493). Kind of test: Kinase assay CDK1B (radiometric profiling service). Particulars: for Ki: apparent Ki calculated from Km (ATP) and IC50, read-out: CDK inhibition Ki CDK1B; for remaining activity at 10 µM: compound at 10 μM, read-out: % remaining enzymatic activity at 10 μM CDK1B. It counts as biochemical. The protocol:
as §1

The next test deals with CDK7H (Homo sapiens, UniProt P50613). The test can be described thus: Kinase assay CDK7H (radiometric profiling service). It counts as biochemical. The conditions noted are these: for Ki: apparent Ki calculated from Km (ATP) and IC50, read-out: CDK inhibition Ki CDK7H; for remaining activity at 10 µM: compound at 10 μM, read-out: % remaining enzymatic activity at 10 μM CDK7H. The protocol: as §1
CDK7H, sequence (P50613 whole entry): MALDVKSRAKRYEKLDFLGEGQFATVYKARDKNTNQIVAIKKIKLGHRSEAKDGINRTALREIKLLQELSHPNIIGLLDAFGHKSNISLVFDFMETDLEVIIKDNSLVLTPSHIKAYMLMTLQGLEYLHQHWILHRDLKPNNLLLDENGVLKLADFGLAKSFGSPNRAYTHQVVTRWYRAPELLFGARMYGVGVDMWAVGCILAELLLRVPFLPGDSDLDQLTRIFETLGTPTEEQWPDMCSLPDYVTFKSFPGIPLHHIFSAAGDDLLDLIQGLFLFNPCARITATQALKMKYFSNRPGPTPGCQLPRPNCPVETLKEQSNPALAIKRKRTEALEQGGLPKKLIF
CDK7H, sequence (P51946 whole entry partner): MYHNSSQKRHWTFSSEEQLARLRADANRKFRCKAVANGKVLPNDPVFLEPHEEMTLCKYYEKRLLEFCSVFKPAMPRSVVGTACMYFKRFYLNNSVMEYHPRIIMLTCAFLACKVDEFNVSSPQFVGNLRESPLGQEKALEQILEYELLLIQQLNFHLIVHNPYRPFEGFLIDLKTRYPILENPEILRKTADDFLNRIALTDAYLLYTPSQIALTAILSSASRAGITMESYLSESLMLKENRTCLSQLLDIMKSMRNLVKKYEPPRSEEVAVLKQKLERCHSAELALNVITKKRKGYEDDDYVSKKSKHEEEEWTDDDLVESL
CDK7H, sequence (P51948 whole entry partner): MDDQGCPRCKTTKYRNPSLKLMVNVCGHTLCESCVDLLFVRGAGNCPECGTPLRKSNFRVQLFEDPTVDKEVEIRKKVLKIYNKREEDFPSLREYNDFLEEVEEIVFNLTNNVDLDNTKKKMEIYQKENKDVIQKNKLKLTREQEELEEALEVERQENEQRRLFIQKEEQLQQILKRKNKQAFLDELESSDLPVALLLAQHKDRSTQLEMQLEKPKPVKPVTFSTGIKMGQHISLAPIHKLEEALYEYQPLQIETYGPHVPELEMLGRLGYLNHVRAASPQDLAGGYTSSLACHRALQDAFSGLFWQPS

Another test concerns the target CDK 2A (Homo sapiens, UniProt P24941). Kind of test: Kinase assay CDK2A (radiometric profiling service). It counts as biochemical. Particulars: for Ki: apparent Ki calculated from Km (ATP) and IC50, read-out: CDK inhibition Ki CDK 2A; for remaining activity at 10 µM: compound at 10 μM, read-out: % remaining enzymatic activity at 10 μM CDK 2A. The protocol: as §1
For another test, the target named is T3, CDK9T1 (Homo sapiens, UniProt P50750).
T3 construct: purchased Eurofins Pharma Discovery or Reaction Biology Corporation (service)
T3 sequence (P50750 whole entry): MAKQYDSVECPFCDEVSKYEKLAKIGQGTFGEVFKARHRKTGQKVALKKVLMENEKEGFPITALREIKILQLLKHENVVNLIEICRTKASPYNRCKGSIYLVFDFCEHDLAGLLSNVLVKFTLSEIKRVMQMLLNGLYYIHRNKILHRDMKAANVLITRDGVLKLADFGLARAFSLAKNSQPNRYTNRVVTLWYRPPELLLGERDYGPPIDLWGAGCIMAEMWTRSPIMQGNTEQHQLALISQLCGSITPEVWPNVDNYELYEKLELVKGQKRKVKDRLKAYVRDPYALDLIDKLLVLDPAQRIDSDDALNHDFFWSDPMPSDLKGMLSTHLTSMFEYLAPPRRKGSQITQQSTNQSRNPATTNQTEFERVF
T3 sequence (O60563 whole entry partner): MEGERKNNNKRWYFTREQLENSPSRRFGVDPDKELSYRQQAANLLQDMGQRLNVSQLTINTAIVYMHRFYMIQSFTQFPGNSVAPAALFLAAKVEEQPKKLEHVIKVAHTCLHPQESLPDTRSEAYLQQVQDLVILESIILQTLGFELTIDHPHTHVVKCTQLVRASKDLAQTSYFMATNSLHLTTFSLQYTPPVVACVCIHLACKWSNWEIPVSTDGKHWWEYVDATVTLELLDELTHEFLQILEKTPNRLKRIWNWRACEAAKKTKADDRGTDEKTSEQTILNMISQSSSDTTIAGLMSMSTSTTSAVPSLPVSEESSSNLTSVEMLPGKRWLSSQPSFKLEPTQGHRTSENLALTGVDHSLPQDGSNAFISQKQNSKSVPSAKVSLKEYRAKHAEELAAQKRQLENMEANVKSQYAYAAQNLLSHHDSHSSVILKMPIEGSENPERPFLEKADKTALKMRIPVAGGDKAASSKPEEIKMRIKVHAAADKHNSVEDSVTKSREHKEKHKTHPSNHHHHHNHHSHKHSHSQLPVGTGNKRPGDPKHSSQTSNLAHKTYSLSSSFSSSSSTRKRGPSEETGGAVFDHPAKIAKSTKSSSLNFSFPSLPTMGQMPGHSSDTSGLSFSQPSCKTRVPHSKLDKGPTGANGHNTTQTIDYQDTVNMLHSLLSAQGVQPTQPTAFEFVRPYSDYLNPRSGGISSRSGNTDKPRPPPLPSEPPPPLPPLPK
Kind of test: Kinase assay CDK9/T1 (radiometric or ADP Glo). It counts as biochemical. Particulars: for Ki: apparent Ki calculated from Km (ATP) and IC50, read-out: CDK inhibition Ki CDK9T1; for remaining activity at 10 µM: compound at 10 μM, read-out: % remaining enzymatic activity at 10 μM CDK9T1. The protocol: as §1

A further test relates to MV4-11. Kind of test: Cell viability assay (resazurin, leukemia cell line) MV4-11. It counts as cell-based, human. Particulars: Homo sapiens, MV4-11, 72 h; read-out: Anti-proliferative activity GI50 MV4-11. From the text: (§2) Compounds from Example 1 were subjected to a standard MTT (3-(4,5-dimethylthiazol-2-yl)-2,5-diphenyltetrazolium bromide) and resazurin assays on solid tumour cell lines and leukemia cell lines, respectively, as previously reported (Wang S et al., J Med Chem 47:1662-1675, 2004 and Diab S. et al. CheMedChem 9:962-972, 2014).
On the technique in general: Resazurin is reduced to fluorescent resorufin, in cell work by metabolically active cells.

For the next test, the system named is MDA-MB-453. Kind of test: Cell viability assay (MTT, solid tumour cell line) MDA-MB-453. Format: cell-based, human. The conditions noted are these: Homo sapiens, MDA-MB-453, 72 h; read-out: Anti-proliferative activity GI50 MDA-MB-453.
Source text: as §2

CDK1B, sequence (P06493 whole entry): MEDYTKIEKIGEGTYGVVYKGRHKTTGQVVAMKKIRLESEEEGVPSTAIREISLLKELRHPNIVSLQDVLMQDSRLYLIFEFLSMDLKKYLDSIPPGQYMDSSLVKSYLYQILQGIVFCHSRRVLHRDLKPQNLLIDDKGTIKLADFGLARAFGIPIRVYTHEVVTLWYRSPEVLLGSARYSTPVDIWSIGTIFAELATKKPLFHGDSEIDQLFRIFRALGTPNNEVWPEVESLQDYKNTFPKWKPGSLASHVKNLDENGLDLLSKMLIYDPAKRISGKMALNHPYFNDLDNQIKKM
CDK1B, sequence (P14635 whole entry partner): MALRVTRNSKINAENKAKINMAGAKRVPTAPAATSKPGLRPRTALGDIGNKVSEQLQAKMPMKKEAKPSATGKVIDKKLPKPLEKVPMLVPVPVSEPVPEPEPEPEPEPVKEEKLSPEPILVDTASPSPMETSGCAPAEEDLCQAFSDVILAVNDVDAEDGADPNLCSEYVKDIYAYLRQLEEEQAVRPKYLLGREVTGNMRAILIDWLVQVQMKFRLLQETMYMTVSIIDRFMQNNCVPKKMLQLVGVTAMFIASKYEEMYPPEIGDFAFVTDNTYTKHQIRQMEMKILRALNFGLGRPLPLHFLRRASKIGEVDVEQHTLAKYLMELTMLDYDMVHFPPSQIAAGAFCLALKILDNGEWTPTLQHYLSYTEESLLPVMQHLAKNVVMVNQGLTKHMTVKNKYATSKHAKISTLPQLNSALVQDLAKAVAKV
T1 sequence (P11802 whole entry): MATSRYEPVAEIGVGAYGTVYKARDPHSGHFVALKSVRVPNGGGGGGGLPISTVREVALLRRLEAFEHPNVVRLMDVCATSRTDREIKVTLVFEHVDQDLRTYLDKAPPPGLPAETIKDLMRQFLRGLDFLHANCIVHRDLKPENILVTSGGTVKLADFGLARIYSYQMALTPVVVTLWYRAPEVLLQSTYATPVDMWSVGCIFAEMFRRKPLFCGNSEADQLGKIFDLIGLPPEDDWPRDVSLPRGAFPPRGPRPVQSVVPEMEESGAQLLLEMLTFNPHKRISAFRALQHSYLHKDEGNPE
T1 sequence (P24385 whole entry partner): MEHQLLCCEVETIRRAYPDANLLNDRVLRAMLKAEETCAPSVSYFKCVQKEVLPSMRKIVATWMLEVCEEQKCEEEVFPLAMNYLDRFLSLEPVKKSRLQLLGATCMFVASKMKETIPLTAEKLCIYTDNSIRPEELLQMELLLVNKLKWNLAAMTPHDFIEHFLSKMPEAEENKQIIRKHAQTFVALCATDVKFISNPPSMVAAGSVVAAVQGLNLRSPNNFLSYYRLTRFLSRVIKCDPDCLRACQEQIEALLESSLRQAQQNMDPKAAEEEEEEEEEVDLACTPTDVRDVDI

What is called GI50 is the concentration at which growth is held to half of that of the control. Consider `CNc1nc(C)c(-c2ccnc(Nc3ccc(N4CCOCC4)cn3)n2)s1` [Compound 36, N,4-dimethyl-5-(2-((5-morpholinopyridin-2-yl)amino)pyrimidin-4-yl)thiazol-2-amine], for which the Ki was 20 nM on CDK4D1; 610 nM on CDK6D3; greater than 5000 nM on CDK1B; greater than 5000 nM on CDK7H; 459 nM at CDK 2A; greater than 5000 nM at CDK9T1. For the same compound, in the test with MV4-11, the GI50 amounted to 643 ± 18 nM.
Turning to `Cc1nc(C(C)C)sc1-c1ccnc(Nc2ccc(N3CCNCC3)cn2)n1` [Compound 13, 4-(2-isopropyl-4-methylthiazol-5-yl)-N-(5-(piperazin-1-yl)pyridin-2-yl)pyrimidin-2-amine], the Ki was 11 nM at CDK4D1; 30 nM on CDK6D3; 3740 nM at CDK1B; greater than 5000 nM at CDK7H; 241 nM at CDK 2A; greater than 5000 nM at CDK9T1. The GI50 stood at 703 ± 71 nM in the test on MDA-MB-453 and 29 ± 19 nM in the test on MV4-11.
Regarding `CC(=O)N1CCN(c2ccc(Nc3nccc(-c4sc(C(C)C)nc4C)n3)nc2)CC1` [Compound 16, 1-(4-(6-((4-(2-isopropyl-4-methylthiazol-5-yl)pyrimidin-2-yl)amino)pyridin-3-yl)piperazin-1-yl)ethan-1-one], the Ki on CDK4D1 is 62 nM; on CDK6D3, 209 nM; at CDK1B, 4850 nM; on CDK7H it was greater than 5000 nM; on CDK 2A, 246 nM; on CDK9T1, greater than 5000 nM. The GI50 in the test on MDA-MB-453 is greater than 10000 nM; with MV4-11 it was 457 ± 122 nM.
Turning to `CNc1nc(C)c(-c2nc(Nc3ccc(N4CCN(C(C)=O)CC4)cn3)ncc2F)s1` [Compound 35, 1-(4-(6-((5-fluoro-4-(4-methyl-2-(methylamino)thiazol-5-yl)pyrimidin-2-yl)amino)pyridin-3-yl)piperazin-1-yl)ethan-1-one], the Ki at CDK4D1 is 17 nM; at CDK6D3, 46 nM; at CDK1B, 1820 nM; on CDK7H, greater than 5000 nM; at CDK 2A, 178 nM; at CDK9T1, 4070 nM. Further, the GI50 was determined as 4910 ± 432 nM in the test on MDA-MB-453 and 35 ± 4 nM with MV4-11.
On to `CCN1CCN(Cc2ccc(Nc3ncc(F)c(-c4sc(NC5CCCC5)nc4C)n3)nc2)CC1` [Compound 84, N-cyclopentyl-5-(2-((5-((4-ethylpiperazin-1-yl)methyl)pyridin-2-yl)amino)-5-fluoropyrimidin-4-yl)-4-methylthiazol-2-amine], for which the Ki at CDK4D1 is 3 nM; on CDK6D3 it was 14 nM; at CDK1B, greater than 5000 nM; on CDK7H it was 630 nM; on CDK9T1, 3570 nM. In addition, the GI50 in the test with MDA-MB-453 was determined as 622 ± 208 nM.
For `CNc1nc(C)c(-c2nc(Nc3ccc(N4CCN(Cc5ccccc5)CC4)cn3)ncc2C#N)s1` [Compound 40, 2-((5-(4-benzylpiperazin-1-yl)pyridin-2-yl)amino)-4-(4-methyl-2-(methylamino)thiazol-5-yl)pyrimidine-5-carbonitrile], the Ki was 16 nM on CDK4D1; 36 nM on CDK6D3; greater than 5000 nM on CDK1B; greater than 5000 nM at CDK7H; greater than 5000 nM at CDK 2A; 999 nM on CDK9T1. Moreover, the GI50 with MV4-11 turned out to be 84 ± 8 nM.
As to `CNc1nc(C)c(-c2ccnc(Nc3ccc(N4CCN(Cc5ccccc5)CC4)cc3)n2)s1` [Compound 41, 5-(2-((4-(4-benzylpiperazin-1-yl)phenyl)amino)pyrimidin-4-yl)-N,4-dimethylthiazol-2-amine], the Ki was 6 nM at CDK4D1; 225 nM on CDK6D3; 133 nM at CDK1B; 67 nM at CDK7H; 37 nM at CDK 2A; 117 nM at CDK9T1. Moreover, the 50% growth inhibitory concentration (GI50) with MV4-11 was found to be 38 ± 6 nM.
Regarding `CNc1nc(C)c(-c2ccnc(Nc3ccc(N4CCNCC4)cn3)n2)s1` [Compound 26, N,4-dimethyl-5-(2-((5-(piperazin-1-yl)pyridin-2-yl)amino)pyrimidin-4-yl)thiazol-2-amine], the Ki was 6 nM on CDK4D1; 114 nM on CDK6D3; greater than 5000 nM on CDK1B; greater than 5000 nM on CDK7H; 889 nM on CDK 2A; 2850 nM on CDK9T1. Besides, the GI50 in the test with MV4-11 is 259 ± 241 nM.
In general, remaining activity refers to the share of the control activity or signal that is left under treatment. Consider `CC(=O)N1CCN(c2ccc(Nc3nccc(-c4sc(=O)[nH]c4C)n3)nc2)CC1` [Compound 95, 5-(2-((5-(4-acetylpiperazin-1-yl)pyridin-2-yl)amino)pyrimidin-4-yl)-4-methylthiazol-2(3H)-one], for which the remaining activity at 10 µM at CDK6D3 (compound at 10 μM, read-out: % remaining enzymatic activity at 10 μM CDK6D3) was determined as 25%; at CDK1B it was 55%; at CDK7H it was 68%; on CDK 2A, 40%; at CDK9T1 it was 17%. Besides, the figures for the GI50 in the test on MDA-MB-453 and with MV4-11 were greater than 10000 nM and 2240 ± 43 nM, respectively.
As to `CNc1nc(C)c(-c2nc(Nc3ccc(N4CCN(C)CC4)cn3)ncc2C#N)s1` [Compound 30, 4-(4-methyl-2-(methylamino)thiazol-5-yl)-2-((5-(4-methylpiperazin-1-yl)pyridin-2-yl)amino)pyrimidine-5-carbonitrile], the Ki at CDK4D1 was 4 nM; at CDK6D3, 32 nM. For the same compound, the remaining activity at 10 µM at CDK1B is 66%; at CDK7H, 43%; on CDK 2A, 36%; on CDK9T1 it was 9%. The concentration for 50% growth inhibition (GI50) in the test with MV4-11 turned out to be 56 ± 4 nM.
Consider `CNc1nc(C)c(-c2nc(Nc3ccc(N4CCN(Cc5ccccc5)CC4)cc3)ncc2C#N)s1` [Compound 42, 2-((4-(4-benzylpiperazin-1-yl)phenyl)amino)-4-(4-methyl-2-(methylamino)thiazol-5-yl)pyrimidine-5-carbonitrile], for which the Ki at CDK4D1 is 1 nM; on CDK6D3, 36 nM; at CDK1B, 89 nM; on CDK7H, 101 nM; on CDK 2A, 17 nM; on CDK9T1, 34 nM. Also, in the test on MV4-11, the GI50 was determined as 37 ± 6 nM.
Consider `CNc1nc(C)c(-c2nc(Nc3ccc(N4CCNCC4)cn3)ncc2C#N)s1` [Compound 27, 4-(4-methyl-2-(methylamino)thiazol-5-yl)-2-((5-(piperazin-1-yl)pyridin-2-yl)amino)pyrimidine-5-carbonitrile], for which the Ki on CDK4D1 was 1 nM; at CDK6D3 it was 40 nM. The remaining activity at 10 µM was found to be 56% on CDK1B, 39% on CDK7H, 34% on CDK 2A and 11% at CDK9T1. The GI50 with MV4-11 worked out at 14 ± 6 nM.
In the case of `CNc1nc(C)c(-c2nc(Nc3ccc(N4CCOCC4)cn3)ncc2C#N)s1` [Compound 37, 4-(4-methyl-2-(methylamino)thiazol-5-yl)-2-((5-morpholinopyridin-2-yl)amino)pyrimidine-5-carbonitrile], the Ki on CDK4D1 was 4 nM; at CDK6D3, 64 nM; on CDK1B it was greater than 5000 nM; on CDK7H, greater than 5000 nM; on CDK 2A, 201 nM; at CDK9T1, greater than 5000 nM. The 50% growth inhibitory concentration (GI50) in the test on MV4-11 amounted to 465 ± 129 nM.
Take `CNc1nc(C)c(-c2ccnc(Nc3ccc(N4CCN(Cc5ccccc5)CC4)cn3)n2)s1` [Compound 39, 5-(2-((5-(4-benzylpiperazin-1-yl)pyridin-2-yl)amino)pyrimidin-4-yl)-N,4-dimethylthiazol-2-amine]: the Ki was 169 nM at CDK4D1; 2710 nM on CDK6D3; greater than 5000 nM on CDK1B; greater than 5000 nM at CDK7H; greater than 5000 nM at CDK 2A; greater than 5000 nM on CDK9T1. The GI50 with MV4-11 was 45900 ± 2520 nM.
